Assay results reported in patent publication US5159077A, “Penam antibacterial compounds” (Hoffmann-La Roche Inc., priority 1989, dated 1992).
Values after ≈ are worked out from the molar mass of the structure shown. Structures can show the parent of a compound that is named as a salt. Where two headings read alike, the source gives them in different places.

How the values were obtained:
[1] = test system: Pseudomonas aeruginosa ATCC 27853; test: In vitro MIC, Broth Dilution Method; assay type: cell-based; details: ATCC27853; Broth Dilution Method; Pseudomonas aeruginosa ATCC 27853; read-out: In Vitro MIC
Procedure: (§1) The diluted agents prepared in Mueller-Hinton broth were dispensed from a Dynatech MIC 2000 machine, in 100 microliter (μL) volumes into 96 well trays and used immediately or frozen at -10° to -70° C. until needed. Using a Dynatech inoculator and inoculum trays, 1.5 μL of a 10^-2 dilution of an overnight culture was added to each well of the tray. The tops of the trays were then sealed with tape, and the trays were incubated overnight at 37° C. and then examined with a viewer. The lowest concentration at which no growth was observed was considered to be the minimum inhibitory concentration (MIC).

Proteus mirabilis 90 = test: In vitro MIC, Broth Dilution Method; assay type: cell-based
Procedure: as §1

[2] = test system: Streptococcus faecalis ATCC 29212; test: In vitro MIC, Broth Dilution Method; assay type: cell-based; details: Enterococcus faecalis, ATCC29212; Broth Dilution Method; Streptococcus faecalis ATCC 29212; read-out: In Vitro MIC
Procedure: as §1

[3] = test system: Proteus vulgaris ATCC 6380; test: In vitro MIC, Broth Dilution Method; assay type: cell-based; details: Proteus vulgaris, ATCC6380, read-out: In Vitro MIC
Procedure: as §1

[4] = test system: Enterobacter cloacae 5699; test: In vitro MIC, Broth Dilution Method; assay type: cell-based
Procedure: as §1

[5] = test system: Staphylococcus aureus ATCC 29213; test: In vitro MIC, Broth Dilution Method; assay type: cell-based
Procedure: as §1

Enterobacter cloacae P99 = test: In vitro MIC, Broth Dilution Method; assay type: cell-based; details: P99, read-out: In Vitro MIC
Procedure: as §1

Klebsiella pneumoniae A = test: In vitro MIC, Broth Dilution Method; assay type: cell-based; details: read-out: In Vitro MIC
Procedure: as §1

Serratia marcescens SM [6] = test: In vitro MIC, Broth Dilution Method; assay type: cell-based; details: read-out: In Vitro MIC
Procedure: as §1

Escherichia coli 4 = test: In vitro MIC, Broth Dilution Method; assay type: cell-based
Procedure: as §1

[7] = test system: Staphylococcus aureus Smith; test: In vitro MIC, Broth Dilution Method; assay type: cell-based; details: read-out: In Vitro MIC
Procedure: as §1

[8] = test system: Citrobacter freundii BS-16; test: In vitro MIC, Broth Dilution Method; assay type: cell-based; details: BS16; Broth Dilution Method; Citrobacter freundii BS-16; read-out: In Vitro MIC
Procedure: as §1

[9] = test system: Streptococcus pneumoniae 6301; test: In vitro MIC, Broth Dilution Method; assay type: cell-based
Procedure: as §1

Escherichia coli TEM-1 = test: In vitro MIC, Broth Dilution Method; assay type: cell-based; details: TEM1, read-out: In Vitro MIC
Procedure: as §1

Proteus mirabilis 2 = test: In vitro MIC, Broth Dilution Method; assay type: cell-based
Procedure: as §1

[10] = test system: Pseudomonas aeruginosa Stone 130; test: In vitro MIC, Broth Dilution Method; assay type: cell-based
Procedure: as §1

Streptococcus 82 = test: In vitro MIC, Agar Well Diffusion Method; assay type: cell-based, Streptococcus aureus
Procedure: (§2) In vitro antimicrobial activity was determined in BBL seed agar. Serial dilutions of the test compound were pipetted into agar wells (80 μL per well). […] For reference, see A. H. Litton, Antibiotics: Assessment of Antimicrobial Activity and Resistance, Academic Press, New York, pages 19-30 (1983).

Escherichia coli 1269B = test: In vitro MIC, Agar Well Diffusion Method; assay type: cell-based; details: read-out: In Vitro MIC
Procedure: as §2

Pseudomonas aeruginosa B = test: In vitro MIC, Agar Well Diffusion Method; assay type: cell-based; details: read-out: In Vitro MIC
Procedure: as §2

[11] = test system: Enterobacter cloacae 2952B; test: In vitro MIC, Agar Well Diffusion Method; assay type: cell-based; details: read-out: In Vitro MIC
Procedure: as §2

[12] = test system: Klebsiella pneumoniae 369; test: In vitro MIC, Agar Well Diffusion Method; assay type: cell-based
Procedure: as §2

Serratia marcescens SM [13] = test: In vitro MIC, Agar Well Diffusion Method; assay type: cell-based; details: read-out: In Vitro MIC
Procedure: as §2

[14] = test system: Streptococcus faecium ATCC 8043; test: In vitro MIC, Agar Well Diffusion Method; assay type: cell-based; details: Enterococcus faecium
Procedure: as §2

Proteus vulgaris 101N = test: In vitro MIC, Agar Well Diffusion Method; assay type: cell-based; details: read-out: In Vitro MIC
Procedure: as §2

[15] = test system: Pseudomonas aeruginosa 56; test: In vitro MIC, Agar Well Diffusion Method; assay type: cell-based
Procedure: as §2

Micrococcus luteus PCl = test: In vitro MIC, Agar Well Diffusion Method; assay type: cell-based; details: read-out: In Vitro MIC
Procedure: as §2

[16] = stability of the product (remark in the preparation); assay type: physicochemical; details: remark on the isolated product
[17] = Broth Dilution Method, Proteus mirabilis 90, read-out: In Vitro MIC
[18] = Broth Dilution Method, Enterobacter cloacae 5699, read-out: In Vitro MIC
[19] = ATCC29213, Broth Dilution Method, Staphylococcus aureus ATCC 29213, read-out: In Vitro MIC
[20] = Broth Dilution Method, Klebsiella pneumoniae A
[21] = Broth Dilution Method, Serratia marcescens SM
[22] = Broth Dilution Method, Escherichia coli 4, read-out: In Vitro MIC
[23] = Broth Dilution Method, Staphylococcus aureus Smith
[24] = Broth Dilution Method, Proteus mirabilis 2, read-out: In Vitro MIC
[25] = STONE130, Broth Dilution Method, Pseudomonas aeruginosa Stone 130, read-out: In Vitro MIC
[26] = Agar Well Diffusion Method, Streptococcus aureus 82, read-out: In Vitro MIC
[27] = Agar Well Diffusion Method, Escherichia coli 1269B
[28] = Agar Well Diffusion Method, Pseudomonas aeruginosa B
[29] = Agar Well Diffusion Method, Enterobacter cloacae 2952B
[30] = Agar Well Diffusion Method, Klebsiella pneumoniae 369, read-out: In Vitro MIC
[31] = Agar Well Diffusion Method, Serratia marcescens SM
[32] = ATCC8043, Agar Well Diffusion Method, Streptococcus faecium ATCC 8043, read-out: In Vitro MIC
[33] = Agar Well Diffusion Method, Proteus vulgaris 101N
[34] = Agar Well Diffusion Method, Pseudomonas aeruginosa 56, read-out: In Vitro MIC
[35] = Agar Well Diffusion Method, Micrococcus luteus PCl
[36] = Proteus mirabilis, 90, read-out: In Vitro MIC
[37] = Enterobacter cloacae, 5699, read-out: In Vitro MIC
[38] = Escherichia coli, 4, read-out: In Vitro MIC
[39] = Broth Dilution Method, Streptococcus pneumoniae 6301, read-out: In Vitro MIC
[40] = Pseudomonas aeruginosa, STONE130, read-out: In Vitro MIC
[41] = Proteus mirabilis, 2, read-out: In Vitro MIC

Compound	MIC [1]	MIC (Proteus mirabilis 90; [17])	MIC [2]	MIC [3]	MIC [4, 18]	MIC [5, 19]	MIC (Enterobacter cloacae P99)	MIC (Serratia marcescens SM [6]; [21])	MIC [8]	MIC (Escherichia coli TEM-1)	MIC (Streptococcus 82; [26])	MIC (Escherichia coli 1269B; [27])	MIC (Pseudomonas aeruginosa B; [28])	MIC [11, 29]	MIC [12, 30]	MIC (Serratia marcescens SM [13]; [31])	MIC [14, 32]	MIC (Proteus vulgaris 101N; [33])	MIC [15, 34]	MIC (Micrococcus luteus PCl; [35])	further results
CCn1cc(C(=O)OC)c(=O)c2cc(F)c(N3CCN(C=N[C@@H]4C(=O)N5[C@@H]4SC(C)(C)[C@@H]5C(=O)O)CC3)cc21 [Compound A]	> 128 µg/mL	32 µg/mL (≈ 57.2 µM)	32 µg/mL (≈ 57.2 µM)	4 µg/mL (≈ 7.15 µM)	8 µg/mL (≈ 14.3 µM)	16 µg/mL (≈ 28.6 µM)	8 µg/mL (≈ 14.3 µM)	16 µg/mL (≈ 28.6 µM)	32 µg/mL (≈ 57.2 µM)	4 µg/mL (≈ 7.15 µM)	7.8 µg/mL (≈ 13.9 µM)	62.5 µg/mL (≈ 112 µM)	250 µg/mL (≈ 447 µM)	62.5 µg/mL (≈ 112 µM)	125 µg/mL (≈ 223 µM)	250 µg/mL (≈ 447 µM)	250 µg/mL (≈ 447 µM)	62.5 µg/mL (≈ 112 µM)	500 µg/mL (≈ 893 µM)	31.3 µg/mL (≈ 55.9 µM)	MIC (Klebsiella pneumoniae A; [20]): 16 µg/mL (≈ 28.6 µM); MIC (Escherichia coli 4; [22]): 8 µg/mL (≈ 14.3 µM); MIC [7, 23]: 2 µg/mL (≈ 3.57 µM); MIC ([9]; Streptococcus pneumoniae, 6301, read-out: In Vitro MIC): 1 µg/mL (≈ 1.79 µM); MIC (Proteus mirabilis 2; [24]): 8 µg/mL (≈ 14.3 µM); MIC [10, 25]: 64 µg/mL (≈ 114 µM)
CCn1cc(C(=O)O)c(=O)c2cc(F)c(N3CCN(C=N[C@@H]4C(=O)N5[C@@H]4SC(C)(C)[C@@H]5C(=O)O)CC3)nc21 [Compound H, disodium salt]	8 µg/mL	–	8 µg/mL	0.125 µg/mL	–	0.5 µg/mL	0.125 µg/mL	0.5 µg/mL	0.5 µg/mL	0.125 µg/mL	7.8 µg/mL	7.8 µg/mL	15.6 µg/mL	31.3 µg/mL	7.8 µg/mL	31.3 µg/mL	125 µg/mL	7.8 µg/mL	15.6 µg/mL	31.3 µg/mL	MIC (Proteus mirabilis 90; [36]): 1 µg/mL; MIC [4, 37]: 0.125 µg/mL; MIC (Klebsiella pneumoniae A; [20]): 0.25 µg/mL; MIC (Escherichia coli 4; [38]): 0.125 µg/mL; MIC [7, 23]: 0.5 µg/mL; MIC [9, 39]: 2 µg/mL; MIC (Proteus mirabilis 2; [24]): 0.5 µg/mL; MIC [10, 40]: 1 µg/mL; stability [16]: very unstable
CCn1cc(C(=O)O)c(=O)c2cc(F)c(N3CCCN(C=N[C@@H]4C(=O)N5[C@@H]4SC(C)(C)[C@@H]5C(=O)O)CC3)cc21 [Compound G, [2S-(2α,5α,6β)]-7-[4-[[)2-Carboxy-3,3-dimethyl-7-oxo-4-thia-1-azabicyclo[3.2.0]hept-6-yl)-imino]methyl]hexahydro-1H-1,4-diazepin-1-yl]-1-ethyl-6-fluoro-1,4-dihydro-4-oxo-3-quinolinecarboxylic acid disodium salt]	16 µg/mL	8 µg/mL	64 µg/mL	1 µg/mL	2 µg/mL	16 µg/mL	2 µg/mL	2 µg/mL	8 µg/mL	1 µg/mL	50 µg/mL	50 µg/mL	50 µg/mL	100 µg/mL	100 µg/mL	50 µg/mL	> 400 µg/mL	50 µg/mL	100 µg/mL	25 µg/mL	MIC (Klebsiella pneumoniae A; [20]): 2 µg/mL; MIC (Escherichia coli 4; [22]): 2 µg/mL; MIC [7, 23]: 2 µg/mL; MIC [9, 39]: 2 µg/mL; MIC (Proteus mirabilis 2; [41]): 4 µg/mL; MIC [10, 25]: 8 µg/mL
CCn1cc(C(=O)[O-])c(=O)c2cc(F)c(N3CCN(C=N[C@H]4CN(S(=O)(=O)[O-])C4=O)CC3)cc21.[Na+].[Na+] [Compound E, (S)-1-Ethyl-6-fluoro-1,4-dihydro-4-oxo-7-[4-[[(1-sulfo-2-oxo-3-azetidinyl)imino]methyl]-1-piperazinyl]-3-quinolinecarboxylic acid disodium salt]	–	–	–	0.031 µg/mL	–	–	0.063 µg/mL	–	–	0.063 µg/mL	–	–	–	–	–	–	–	–	–	–	MIC (Proteus mirabilis 90; [36]): 0.063 µg/mL; MIC [4, 37]: 0.125 µg/mL; MIC ([5]; Staphylococcus aureus, ATCC29213, read-out: In Vitro MIC): 2 µg/mL; MIC (Klebsiella pneumoniae A; Klebsiella pneumoniae): 0.125 µg/mL; MIC (Serratia marcescens SM [6]; Serratia marcescens): 0.063 µg/mL; MIC (Escherichia coli 4; [38]): 0.125 µg/mL; MIC ([7]; Staphylococcus aureus): 0.5 µg/mL; MIC (Proteus mirabilis 2; [41]): 0.063 µg/mL; MIC [10, 40]: 1 µg/mL; MIC (Streptococcus 82; Streptococcus, 82, read-out: In Vitro MIC): 15.6 µg/mL; MIC (Escherichia coli 1269B; Escherichia coli, 1269B): 7.8 µg/mL; MIC (Pseudomonas aeruginosa B; Pseudomonas aeruginosa): 3.9 µg/mL; MIC ([11]; Enterobacter cloacae, 2952B): 31.3 µg/mL; MIC ([12]; Klebsiella pneumoniae, 369, read-out: In Vitro MIC): 3.9 µg/mL; MIC (Serratia marcescens SM [13]; Serratia marcescens): 3.9 µg/mL; MIC ([14]; ATCC8043, read-out: In Vitro MIC): > 125 µg/mL; MIC (Proteus vulgaris 101N; Proteus vulgaris, 101N): 1.95 µg/mL; MIC ([15]; Pseudomonas aeruginosa, 56, read-out: In Vitro MIC): 7.8 µg/mL; MIC (Micrococcus luteus PCl; Micrococcus luteus): > 125 µg/mL
CC1(C)S[C@@H]2[C@H](N=CN3CCN(c4c(F)cc5c(=O)c(C(=O)O)cn(CCF)c5c4F)CC3)C(=O)N2[C@H]1C(=O)O [Compound D, 2R-(2α,5α,6β)]-7-[4-[[(2-Carboxy-3,3-dimethyl-7-oxo-4-thia-1-azabicyclo[3.2.0]hept-6-yl)amino]-methylene]-1-piperazinyl]-6,8-difluoro-1-(2-fluoroethyl)-1,4-dihydro-4-dihydro-4-oxo-3-quinoline-carboxylic acid monosodium salt]	2 µg/mL	1 µg/mL	32 µg/mL	0.063 µg/mL	0.25 µg/mL	4 µg/mL	0.125 µg/mL	0.25 µg/mL	1 µg/mL	0.125 µg/mL	3.9 µg/mL	1.95 µg/mL	15.6 µg/mL	7.8 µg/mL	7.8 µg/mL	31.3 µg/mL	15.6 µg/mL	1.95 µg/mL	7.8 µg/mL	15.6 µg/mL	MIC (Klebsiella pneumoniae A; Klebsiella pneumoniae): 0.125 µg/mL; MIC (Escherichia coli 4; [38]): 0.125 µg/mL; MIC ([7]; Staphylococcus aureus): 0.5 µg/mL; MIC [9, 39]: 2 µg/mL; MIC (Proteus mirabilis 2; [41]): 0.125 µg/mL; MIC [10, 25]: 4 µg/mL
